Series [1] in a line: Toxicity in CF1 mouse infected with asexual blood-stage (ABS) Plasmodium yoelii MRA-428 assessed as ruffled hair at 0.3 to 30 mg/kg, po treated 24 hrs post infection measured after 4 days. It is filed as organism-based. Conditions: in vivo, 96 h, dose 0.3-30 mg/kg, time 4 day.
A short description of series [2]: Toxicity in CF1 mouse infected with asexual blood-stage (ABS) Plasmodium yoelii MRA-428 assessed as weight loss at 0.3 to 30 mg/kg, po treated 24 hrs post infection measured after 4 days. Conditions: in vivo, 96 h, dose 0.3-30 mg/kg, time 4 day. Type of series: organism-based.
Series [3] relates to Plasmodium cynomolgi. In words: Antiplasmodial activity against schizont Plasmodium cynomolgi B strain infected in Macaca mulatta hepatocytes incubated with sporozoite containing salivary gland homogenate obtained from dissected Anopheles dirus mosquitoes (infected with Plasmodium cynomolgi B strain) treatment started on day 4 post infection and continued daily for 4 days into fresh changed media until day 8 assessed as Liver stage (LS) activity by measuring radical cure mode by immunofluorescent staining analysis. It is filed as functional, organism-based. The note with it: Hepatocyte.

The subject of series [4] is Hepatocyte. In words: Cytotoxicity against Macaca mulatta hepatocytes assessed as cell viability measured after 48 hrs by MTT assay. Conditions: rhesus monkey, 48 h. It is filed as toxicity, cell-based.
The test system of series [5] is Plasmodium cynomolgi. In words: Antiplasmodial activity against schizont Plasmodium cynomolgi B strain infected in Macaca mulatta hepatocytes incubated with sporozoite containing salivary gland homogenate obtained from dissected Anopheles dirus mosquitoes (infected with Plasmodium cynomolgi B strain) treatment started on day 4 post infection and continued daily for 4 days into fresh changed media until day 8 assessed as Liver stage (LS) activity by measuring prophylactic mode by immunofluorescent staining analysis. Type of series: functional, organism-based. Conditions: Hepatocyte.

For series [6], the system named is Plasmodium falciparum. The series can be described thus: Antiplasmodial activity against asexual blood-stage (ABS) ATV-resistant clinical isolate Plasmodium falciparum Tm90-C2B infected in human erythrocytes assessed as reduction in fluorescence measured after 72 hrs by Malaria SYBR Green I-based Fluorescence (MSF) assay. It is filed as functional, organism-based. The note with it: Erythrocyte.

Series [7] is described as follows: Toxicity in CF1 mouse infected with asexual blood-stage (ABS) Plasmodium yoelii MRA-428 assessed as lethargy at 0.3 to 30 mg/kg, po treated 24 hrs post infection measured after 4 days. Type of series: organism-based. The note with it: in vivo, 96 h, dose 0.3-30 mg/kg, time 4 day.
The test system of series [8] is Plasmodium cynomolgi. The series can be described thus: Antiplasmodial activity against hypnozoite Plasmodium cynomolgi B strain infected in Macaca mulatta hepatocytes incubated with sporozoite containing salivary gland homogenate obtained from dissected Anopheles dirus mosquitoes (infected with Plasmodium cynomolgi B strain) treatment started on day 4 post infection and continued daily for 4 days into fresh changed media until day 8 assessed as Liver stage (LS) activity by measuring radical cure mode by immunofluorescent staining analysis. It is filed as functional, organism-based. Conditions: Hepatocyte.

The nature of series [9]: Toxicity in CF1 mouse infected with asexual blood-stage (ABS) Plasmodium yoelii MRA-428 assessed as hunching at 0.3 to 30 mg/kg, po treated 24 hrs post infection measured after 4 days. Type of series: organism-based. Conditions: in vivo, 96 h, dose 0.3-30 mg/kg, time 4 day.
A short description of series [10]: Selectivity index, ratio of CC50 for Macaca mulatta hepatocytes to IC50 for antiplasmodial activity against schizont Plasmodium cynomolgi B strain infected in Macaca mulatta hepatocytes incubated with sporozoite containing salivary gland homogenate obtained from dissected Anopheles dirus mosquitoes (infected with Plasmodium cynomolgi B strain) treatment started on day 4 post infection and continued daily for 4 days into fresh changed media until day 8 assessed as Liver stage (LS) activity by measuring prophylactic mode by immunofluorescent staining analysis. It is filed as toxicity, cell-based. The note with it: rhesus monkey, read-out: Selectivity Index.

The conditions of series [11]: mouse, microsomes, 1 h.
For series [12] the following is noted: human, microsomes, 1 h.
Series [13] has as its system Plasmodium falciparum. The series can be described thus: Antiplasmodial activity against asexual blood-stage (ABS) MDR Plasmodium falciparum Dd2 infected in human erythrocytes assessed as reduction in fluorescence measured after 72 hrs by Malaria SYBR Green I-based Fluorescence (MSF) assay. It is filed as functional, organism-based. Conditions: Dd2, Erythrocyte.
Series [14] deals with Plasmodium falciparum. The series can be described thus: Antiplasmodial activity against asexual blood-stage (ABS) CQ-sensitive Plasmodium falciparum D6 infected in human erythrocytes assessed as reduction in fluorescence measured after 72 hrs by Malaria SYBR Green I-based Fluorescence (MSF) assay. Type of series: functional, organism-based. The note with it: D6, Erythrocyte.

Series [15] concerns Plasmodium cynomolgi. In words: Antiplasmodial activity against hypnozoite Plasmodium cynomolgi B strain infected in Macaca mulatta hepatocytes incubated with sporozoite containing salivary gland homogenate obtained from dissected Anopheles dirus mosquitoes (infected with Plasmodium cynomolgi B strain) treatment started on day 4 post infection and continued daily for 4 days into fresh changed media until day 8 assessed as Liver stage (LS) activity by measuring prophylactic mode by immunofluorescent staining analysis. It is filed as functional, organism-based. Conditions: Hepatocyte.

A short description of series [16]: Toxicity in CF1 mouse infected with asexual blood-stage (ABS) Plasmodium yoelii MRA-428 assessed as hyperactivity at 0.3 to 30 mg/kg, po treated 24 hrs post infection measured after 4 days. Type of series: organism-based. Conditions: in vivo, 96 h, dose 0.3-30 mg/kg, time 4 day.
Series [17] relates to HepG2. The series can be described thus: Cytotoxicity against human HepG2 cells assessed as cell viability measured after 48 hrs by MTT assay. It is filed as functional, cell-based. Conditions: HepG2, 48 h. A general note: Formazan colour is commonly taken as a measure of viable cells.
A short description of series [18]: Selectivity index, ratio of CC50 for Macaca mulatta hepatocytes to IC50 for antiplasmodial activity against hypnozoite Plasmodium cynomolgi B strain infected in Macaca mulatta hepatocytes incubated with sporozoite containing salivary gland homogenate obtained from dissected Anopheles dirus mosquitoes (infected with Plasmodium cynomolgi B strain) treatment started on day 4 post infection and continued daily for 4 days into fresh changed media until day 8 assessed as Liver stage (LS) activity by measuring radical cure mode by immunofluorescent staining analysis. Type of series: toxicity, cell-based. Conditions: rhesus monkey, read-out: Selectivity Index.

The nature of series [19]: Selectivity index, ratio of CC50 for Macaca mulatta hepatocytes to IC50 for antiplasmodial activity against schizont Plasmodium cynomolgi B strain infected in Macaca mulatta hepatocytes incubated with sporozoite containing salivary gland homogenate obtained from dissected Anopheles dirus mosquitoes (infected with Plasmodium cynomolgi B strain) treatment started on day 4 post infection and continued daily for 4 days into fresh changed media until day 8 assessed as Liver stage (LS) activity by measuring radical cure mode by immunofluorescent staining analysis. Type of series: toxicity, cell-based. Conditions: rhesus monkey, read-out: Selectivity Index.

Series [20] can be described thus: Selectivity index, ratio of CC50 for Macaca mulatta hepatocytes to IC50 for antiplasmodial activity against hypnozoite Plasmodium cynomolgi B strain infected in Macaca mulatta hepatocytes incubated with sporozoite containing salivary gland homogenate obtained from dissected Anopheles dirus mosquitoes (infected with Plasmodium cynomolgi B strain) treatment started on day 4 post infection and continued daily for 4 days into fresh changed media until day 8 assessed as Liver stage (LS) activity by measuring prophylactic mode by immunofluorescent staining analysis. The note with it: rhesus monkey, read-out: Selectivity Index. Type of series: toxicity, cell-based.

Broadly, the IC50 is the concentration at which inhibition is half-maximal. One may read the CC50 as the concentration that lowers cell viability or growth by half. `CCN(CC)CCOc1ccc2c(=O)c3c([nH]c2c1)CCCC3`: the Activity result in [1], in series [2], in series [7], in [9] and in series [16] was “Non-toxic” in each case. The IC50 in series [3] was above 20 µM; in series [5] it was 14 µM; in series [6] it was above 2.5 µM; in series [8], above 20 µM; in series [13], above 2.5 µM; in series [14] it was above 2.5 µM. Besides, in series [15], the IC50 is above 20 µM. Also, the CC50 in series [4] is above 20 µM. In series [10], the selectivity ratio at 96 h was above 1.43. Moreover, the CLH in series [11] is above 500 µL/min/mg. In addition, the t1/2 in [12] was above 1 h.

Consider `O=c1c2c([nH]c3cccc(Oc4ccc(OC(F)(F)F)cc4)c13)CCCC2`, for which the IC50 was above 200 µM in series [17]; 2.92 µM in [3]; 3.34 µM in series [5]; above 2.5 µM in [6]; 3.83 µM in [8]; above 2.5 µM in series [13]. Further, the IC50 is above 2.5 µM in series [14] and 7.62 µM in series [15]. In addition, the selectivity ratio at 96 h in [18] stood at 1.57; in [19], 2.05; in series [10], 1.79; in series [20] it was 0.787. The Activity entry in [1], in [2], in series [7], in series [9] and in series [16] was “Non-toxic” throughout. For the same molecule, in series [4], the CC50 was 6 µM. Besides, the CLH in [11] came to 48 µL/min/mg.

Take `O=c1c2c([nH]c3ccc(F)c(Oc4ccc(OC(F)(F)F)cc4)c13)CCCC2`: the selectivity ratio at 96 h in series [18] was above 1.43; in series [10], above 2.7; in series [20], above 2.73. In addition, the Activity entry in [1], in series [2], in series [7], in series [9] and in series [16] was “Non-toxic” in each case. Moreover, the IC50 was above 20 µM in [3]; 7.4 µM in series [5]; above 2.5 µM in series [6]; 14 µM in series [8]; above 2.5 µM in [13]; 1.35 µM in [14]. Besides, the IC50 in series [15] is 7.32 µM. Moreover, in series [4], the cytotoxic concentration (CC50) was above 20 µM. For the same molecule, in series [11], the CLH was 31.1 µL/min/mg.

`O=c1c2c([nH]c3cc(Nc4ccc(OC(F)(F)F)cc4)ccc13)CCCC2`: the IC50 in [17] was above 200 µM; in [3] it was 1.4 µM; in [5], 0.21 µM; in [6], 0.00279 µM; in [8], 1.29 µM; in series [13], 0.00185 µM. Moreover, the IC50 in [14] was determined as 0.000232 µM; in series [15], 1.09 µM. Moreover, the selectivity ratio at 96 h in series [18] stood at 1.4; in series [19] it was 1.29; in series [10], 8.62; in [20] it was 1.66. Also, the Activity entry in series [1], in series [2], in series [7], in [9] and in series [16] was “Non-toxic” throughout. In addition, the CC50 in series [4] came to 1.81 µM. Besides, the CLH in series [11] is 56 µL/min/mg.

As to `O=c1c2c([nH]c3cc(Oc4cccc(OC(F)(F)F)c4)ccc13)CCCC2`, the IC50 was above 200 µM in series [17]; 6.87 µM in [3]; 0.6 µM in series [5]; 0.00438 µM in series [6]; 7.99 µM in series [8]; 0.000537 µM in series [13]. Also, the IC50 was 0.000116 µM in series [14] and 4.64 µM in series [15]. In addition, the selectivity ratio at 96 h was determined as 1.25 in series [18], 1.47 in [19], 16.8 in series [10] and 2.18 in series [20]. Moreover, the Activity entry in series [1], in series [2], in series [7], in series [9] and in series [16] was “Non-toxic” throughout. In addition, in [4], the CC50 was 10.1 µM. Moreover, the CLH in series [11] was found to be 29.7 µL/min/mg. The t1/2 in [12] is above 1 h.

`CCCN(CCC)CCCOc1ccc2c(=O)c3c([nH]c2c1)CCCC3`: the IC50 is above 200 µM in series [17]; 14 µM in [3]; 5.33 µM in series [5]; 0.162 µM in [6]; above 20 µM in [8]; 0.126 µM in [13]. Further, the values for the IC50 in series [14] and in series [15] were 0.108 µM and above 20 µM, respectively. Also, the selectivity ratio at 96 h in series [19] is above 1.43; in [10] it was above 3.75. For the same molecule, the Activity entry in series [1], in series [2], in series [7], in series [9] and in series [16] was “Non-toxic” each time. For the same molecule, the CC50 in series [4] is above 20 µM. Further, the CLH in series [11] is above 500 µL/min/mg.

Take `CCN(CC)CCCOc1ccc2c(=O)c3c([nH]c2c1)CCCC3`: the Activity result in [1], in [2], in [7], in series [9] and in [16] was “Non-toxic” throughout. Further, the IC50 in [3] was above 20 µM; in series [5], 11 µM; in [6] it was above 2.5 µM; in series [8] it was above 20 µM; in [13], above 2.5 µM; in [14], above 2.5 µM. Besides, in series [15], the IC50 is above 20 µM. In series [4], the CC50 is above 20 µM. Also, the selectivity ratio at 96 h in [10] was above 1.82. Besides, the CLH in [11] was above 500 µL/min/mg. The molecule further registered a t1/2 in series [12] above 1 h.

Consider `O=c1c2c([nH]c3c(Oc4ccc(OC(F)(F)F)cc4)cccc13)CCCC2`, for which the IC50 is above 200 µM in [17]; 17.9 µM in series [3]; 7.63 µM in [5]; 0.219 µM in [6]; above 20 µM in [8]; 0.0838 µM in [13]. Further, the IC50 was found to be 0.0575 µM in [14] and 13.1 µM in series [15]. Further, the selectivity ratio at 96 h was above 1.12 in series [19], above 2.62 in series [10] and above 1.53 in series [20]. Besides, the Activity entry in [1], in series [2], in series [7], in series [9] and in series [16] was “Non-toxic” each time. For the same molecule, the CC50 in series [4] was above 20 µM. Besides, in series [11], the CLH worked out at 6.85 µL/min/mg. This molecule also displayed a t1/2 in series [12] above 1 h.
